From patent publication US20260217698A1 (BEYANG THERAPEUTICS CO., LTD., priority 2022, published 2026) come the findings set out here.

In one data set the target is T1, TIE2 (Homo sapiens, UniProt Q02763).
T1 construct: purchased BPS 40270
The experiment in a line: Kinase inhibition, Mobility Shift Assay/IMAP, TIE2. The class given is biochemical. In short, it runs like this: (§1)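 Substrate conversion (phosphorylated vs non-phosphorylated) read by mobility shift on Caliper EZ Reader II and converted to % inhibition relative to no-enzyme and DMSO controls. IC50 fitted from % inhibition versus log compound concentration.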

In the next data set the test system is melanin. Briefly: Binding capacity of compounds to melanin. Particulars: cuttlefish (Sepia officinalis), melanin suspension (1 mg/mL); 1 mg/mL melanin in PBS pH 7.4, 2 μM compound, 2 h at 37° C.; read-out: Fu % (percentage of free drug). The class given is in vitro ADME, cuttlefish (Sepia officinalis). In short, it runs like this:
(§2)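 Compound (2 μM final) incubated with washed Sepia melanin (1 mg/mL, PBS pH 7.4) 2 h at 37° C with shaking; PBS with 0.1% BSA served as blank. Supernatants quantified by LC-MS/MS; bound fraction Fb derived from melanin versus blank concentration.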

Data set [1] relates to male black-banded Dutch rabbits.
From the text: The binding of the compound to melanin may affect ocular pharmacokinetics after topical administration. […] In such cases, the compound may bind to melanin tissues in the posterior segment (retinal pigment epithelium, choroid) or anterior segment (ciliary body, iris) of the eye.
In a further data set the target is T2, EGFR (Homo sapiens, UniProt P00533).
T2 construct: purchased Carna 08-115
Briefly: Kinase inhibition, Mobility Shift Assay/IMAP, EGFR. The class given is biochemical. Summed up: as §1

The test system of a further data set is HUVEC cells. Briefly: Inhibition of VEGF-induced HUVEC cell proliferation, CellTiter Glo. Particulars: Homo sapiens, 20 ng/ml VEGF, 72 hours. It counts as cell-based. Summed up:
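HUVEC (4000/well) serum-starved overnight in RPMI-1640 with 5% FBS, compound added 1 h before VEGF (20 ng/ml final in controls). After 72 h at 37 °C, viable cells were quantified by CellTiter-Glo luminescence; % inhibition fitted against log concentration, DMSO+VEGF wells as high control and cell-free wells as low.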

For data set [2] the following is noted: rabbit; for MTD on the third day of eye drop administration: eye drops 3 times a day, both eyes; for MTD on the eighth day of eye drop administration: six consecutive days of eye drops, 3 times a day.
Method: We used male Dutch black-banded rabbits to assess the MTD of the compounds administered in eye drops.
Male Dutch black-banded rabbits (weighing 1.5 kg to 2.5 kg) were purchased from an eligible supplier.
A total of 8 rabbits animals with good health conditions and normal eyes (without abnormalities such as trauma, congestion, redness and swelling) were randomly divided into 4 groups. […] Eye drop administration was conducted for two consecutive days, 3 times a day, at an interval of 6±0.5 hours. Before administration, the status of the dosing preparation was inspected, and its homogeneity was ensured by means of vortexing, stirring, or shaking. Before each administration, the states of rabbit eyes were observed, including but not limited to eye color, substances around the eyes, conjunctival swelling, eye exudate, discharge, cornea, pupillary reflex, etc. Subsequently, the toxicity risk assessment for six consecutive days of eye drop administration was further conducted. A total of 8 rabbits were randomly divided into 2 groups. […] Eye drop administration was conducted 3 times a day, at an interval of 6±0.5 hours.
Data set [3] concerns the target T3, VEGFR2 (Homo sapiens, UniProt P35968). The experiment in a line: Kinase inhibition, Mobility Shift Assay/IMAP, VEGFR2. The class given is biochemical. Also on record: purchased Carna 08-191. Summed up:
as §1
Target sequence in this assay (P35968 790-1356 limits assumed): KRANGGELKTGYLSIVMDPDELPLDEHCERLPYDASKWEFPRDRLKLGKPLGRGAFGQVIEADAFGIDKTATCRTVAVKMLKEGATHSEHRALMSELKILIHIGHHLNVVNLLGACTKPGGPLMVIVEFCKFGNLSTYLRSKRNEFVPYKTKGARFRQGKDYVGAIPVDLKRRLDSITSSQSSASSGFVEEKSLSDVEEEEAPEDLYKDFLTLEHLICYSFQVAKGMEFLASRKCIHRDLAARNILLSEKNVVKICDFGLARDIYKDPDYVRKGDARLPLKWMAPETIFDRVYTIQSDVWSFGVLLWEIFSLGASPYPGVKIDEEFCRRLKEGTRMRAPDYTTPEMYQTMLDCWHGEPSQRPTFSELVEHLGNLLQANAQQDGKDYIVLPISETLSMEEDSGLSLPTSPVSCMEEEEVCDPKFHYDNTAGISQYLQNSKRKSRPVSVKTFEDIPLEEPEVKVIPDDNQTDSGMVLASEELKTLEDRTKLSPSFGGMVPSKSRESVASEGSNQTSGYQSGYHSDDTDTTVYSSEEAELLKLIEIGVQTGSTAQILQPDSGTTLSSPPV

Data set [4] concerns the target T3, VEGFR2. Briefly: Inhibition of VEGF-induced VEGFR2 autophosphorylation (pVEGFR2) in HUVEC cells, ELISA. The class given is cell-based. Further details: endogenous in cells; host or cells: HUVEC. The conditions noted are these: 50 ng/mL human VEGF, compound 1 h. From the text: Vascular endothelial growth factor receptor 2 (VEGFR2) is a primary receptor for VEGF-induced endothelial cell signaling. After ligand binding, VEGFR2 is autophosphorylated and activated. The main function of signaling from VEGFR2 is to induce vascularization during development and after tissue injury, and to bypass blocked blood vessels. Pathologically, VEGF and VEGFR2 are involved in tumor angiogenesis and vascular leakage. They are considered to be main participants in many different cancers and ocular diseases that accompany pathological neovascularization. This assay measured the ability of the compounds to inhibit VEGF-induced VEGFR2 autophosphorylation (pVEGFR2) in HUVEC cells by using ELISA.
Culture cells in a cell culture flask to reach a fusion degree of 60%-80% before cell inoculation. Dilute the cell suspension to […] with a pre-warmed complete medium. Add 80 μL of the cell suspension to all wells of a 96-well cell plate (Corning-3599); and incubate the plate overnight at 37° C. in the presence of 5% CO2. Dissolve the compound powder to 10 mM with DMSO and store it in a nitrogen cabinet. Compound dilution plate: Add a reference compound Ponatinib or a compound to be tested to a 96 V-well plate (Axygen-WIPP 2280) at concentrations achieved as follows: performing 3-fold gradient dilution starting from 5 mM (5 μL of 10 mM compound solution plus 5 μL of DMSO) for a total of 8 concentration points. […] Transfer 20 μL of the diluted compound from the intermediate plate to a cell plate. Then, incubate the cell plate for 1 h at 37° C. in the presence of 5% CO2. After the compound was treated for 1 h, add 25 μL of 250 ng/ml human VEGF at a final concentration of 50 ng/mL to a 96-well plate; and incubate the plate for 5 min at 37° C. in the presence of 5% CO2, centrifuge the plate for 10 min at 3,000 rpm, remove the medium and wash the cells once with 300 μL of pre-chilled DPBS per well. Then, centrifuge the plate for 10 min at 4,000 rpm, remove DPBS, and add 110 μL of pre-chilled 1× cell lysis buffer per well to the 96-well plate. Shake the plate for 40 min at 4° C. Then, freeze the plate in a refrigerator at −80° C. On the next day, remove the plate from the refrigerator at −80° C., thaw the plate, centrifuge the plate for 10 min at 3500 rpm, and add 100 μL of the supernatant per well to an ELISA plate. Seal the plate and incubate it for 2 h at 37° C. Wash the wells 4 times with 1× wash buffer. Add 100 μL of recombinant detection antibody per well. Seal the plate, incubate the plate for 1 h at 37° C., and repeat the step of plate washing. Add 100 μL of secondary antibody per well. Seal the plate, incubate the plate for 30 min at 37° C., and repeat the step of plate washing. Add 100 μL of TMB (protected from light) per well. Seal the plate, incubate the plate for 30 min at 37° C., and add 100 μL of the stop solution per well. Gently shake for 30 sec, measure the absorbance with a SpectraMax® 340 PC 384 Absorbance Microplate Reader within 30 min, and read an optical density value at 450 nm. Conduct data analysis using XL Fit software:
Conduct curve fitting using the 4 Parameter Logistic Model or Sigmoidal Dose-Response Model to obtain IC50 values.
X indicates the log value of compound concentration, Y indicates the inhibition rate (% inhibition), Top indicates the readout of the negative control wells, and Bottom indicates the readout of the positive control well.
Target sequence in this assay (P35968 20-1356): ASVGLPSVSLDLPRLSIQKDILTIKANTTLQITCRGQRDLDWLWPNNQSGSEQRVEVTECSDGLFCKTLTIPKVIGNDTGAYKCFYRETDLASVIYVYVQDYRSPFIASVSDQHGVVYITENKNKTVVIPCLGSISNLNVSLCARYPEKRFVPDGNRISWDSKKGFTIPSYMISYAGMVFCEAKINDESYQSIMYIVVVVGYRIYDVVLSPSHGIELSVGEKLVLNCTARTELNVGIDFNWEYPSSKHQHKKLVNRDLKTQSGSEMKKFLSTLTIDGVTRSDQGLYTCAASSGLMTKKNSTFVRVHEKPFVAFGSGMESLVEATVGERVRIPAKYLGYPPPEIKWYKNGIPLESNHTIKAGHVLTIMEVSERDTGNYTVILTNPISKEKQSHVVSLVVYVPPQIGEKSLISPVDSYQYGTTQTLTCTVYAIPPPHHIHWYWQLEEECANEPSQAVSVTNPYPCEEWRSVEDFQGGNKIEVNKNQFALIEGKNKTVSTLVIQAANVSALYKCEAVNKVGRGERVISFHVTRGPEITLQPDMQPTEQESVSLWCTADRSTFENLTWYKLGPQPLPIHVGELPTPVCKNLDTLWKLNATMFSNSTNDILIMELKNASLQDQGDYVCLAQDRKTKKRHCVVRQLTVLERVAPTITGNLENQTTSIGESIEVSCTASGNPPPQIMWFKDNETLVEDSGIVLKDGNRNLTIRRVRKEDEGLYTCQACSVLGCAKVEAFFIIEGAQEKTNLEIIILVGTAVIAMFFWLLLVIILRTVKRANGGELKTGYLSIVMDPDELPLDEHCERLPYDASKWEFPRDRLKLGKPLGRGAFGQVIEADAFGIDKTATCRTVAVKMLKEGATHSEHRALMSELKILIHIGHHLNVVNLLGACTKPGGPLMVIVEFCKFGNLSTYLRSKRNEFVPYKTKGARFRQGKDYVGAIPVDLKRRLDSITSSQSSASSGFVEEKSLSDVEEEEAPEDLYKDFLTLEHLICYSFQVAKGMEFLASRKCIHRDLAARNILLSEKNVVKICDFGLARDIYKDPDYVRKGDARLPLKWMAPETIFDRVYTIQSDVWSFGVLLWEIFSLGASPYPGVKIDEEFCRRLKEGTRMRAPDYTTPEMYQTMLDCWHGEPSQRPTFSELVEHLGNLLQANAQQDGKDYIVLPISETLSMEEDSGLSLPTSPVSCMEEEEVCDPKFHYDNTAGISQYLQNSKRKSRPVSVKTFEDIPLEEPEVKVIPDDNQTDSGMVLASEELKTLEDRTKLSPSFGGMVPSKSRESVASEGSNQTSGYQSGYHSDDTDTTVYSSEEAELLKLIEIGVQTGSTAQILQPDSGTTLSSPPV
For orientation: ELISA stands for enzyme-linked immunosorbent assay.

In a further data set the target is T4, VEGFR3 (Homo sapiens, UniProt P35916).
T4 construct: purchased Invitrogen PV4129
Briefly: Kinase inhibition, Mobility Shift Assay/IMAP, VEGFR3. It counts as biochemical. In short, it runs like this:
as §1

Data set [5] is described as follows: Solubility test in buffer, LC-MS. The conditions noted are these: aqueous buffer, thermodynamic from solid, room temperature, shaking 8 h, pH not given (method: pH 2.0, 6.5, 7.4). It counts as physicochemical. In short, it runs like this: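 Compound at 2 mg/mL in buffers of pH 2.0, 6.5 and 7.4, sonicated, shaken 8 h at room temperature, then centrifuged at 13,000 rpm. Supernatant quantified by LC-MS against a 3–5 point calibration.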

Another data set has as its target T5, VEGFR1 (Homo sapiens, UniProt P17948).
T5 construct: purchased Invitrogen PR6731B
The experiment in a line: Kinase inhibition, Mobility Shift Assay/IMAP, VEGFR1. The class given is biochemical. Summed up: as §1

The nature of data set [6]: Binding capacity of compounds to melanin. It counts as in vitro ADME, cuttlefish (Sepia officinalis). Summed up:
as §2

[7] abbreviates: eye drops, male black-banded Dutch rabbits, third day after eye drop administration.

In brackets after ≈: the same amount, converted by molar mass. Read-outs that look alike come from different tables or passages of the source.

T2 sequence (P00533 669-1210 limits assumed): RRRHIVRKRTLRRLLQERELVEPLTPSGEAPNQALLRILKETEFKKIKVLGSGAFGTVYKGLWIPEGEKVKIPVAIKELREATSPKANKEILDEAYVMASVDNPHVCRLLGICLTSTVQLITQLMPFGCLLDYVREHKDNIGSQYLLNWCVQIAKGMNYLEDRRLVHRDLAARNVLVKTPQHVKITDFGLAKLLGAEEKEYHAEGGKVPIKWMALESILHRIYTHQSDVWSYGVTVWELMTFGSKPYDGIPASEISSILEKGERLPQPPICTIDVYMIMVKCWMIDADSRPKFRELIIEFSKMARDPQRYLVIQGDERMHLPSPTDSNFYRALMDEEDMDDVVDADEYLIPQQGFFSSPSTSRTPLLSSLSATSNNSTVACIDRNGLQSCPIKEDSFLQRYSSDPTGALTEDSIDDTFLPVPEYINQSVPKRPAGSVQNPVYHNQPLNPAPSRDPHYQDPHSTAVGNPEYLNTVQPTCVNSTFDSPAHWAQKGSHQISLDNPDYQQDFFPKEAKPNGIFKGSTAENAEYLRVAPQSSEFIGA
T1 sequence (Q02763 23-1124): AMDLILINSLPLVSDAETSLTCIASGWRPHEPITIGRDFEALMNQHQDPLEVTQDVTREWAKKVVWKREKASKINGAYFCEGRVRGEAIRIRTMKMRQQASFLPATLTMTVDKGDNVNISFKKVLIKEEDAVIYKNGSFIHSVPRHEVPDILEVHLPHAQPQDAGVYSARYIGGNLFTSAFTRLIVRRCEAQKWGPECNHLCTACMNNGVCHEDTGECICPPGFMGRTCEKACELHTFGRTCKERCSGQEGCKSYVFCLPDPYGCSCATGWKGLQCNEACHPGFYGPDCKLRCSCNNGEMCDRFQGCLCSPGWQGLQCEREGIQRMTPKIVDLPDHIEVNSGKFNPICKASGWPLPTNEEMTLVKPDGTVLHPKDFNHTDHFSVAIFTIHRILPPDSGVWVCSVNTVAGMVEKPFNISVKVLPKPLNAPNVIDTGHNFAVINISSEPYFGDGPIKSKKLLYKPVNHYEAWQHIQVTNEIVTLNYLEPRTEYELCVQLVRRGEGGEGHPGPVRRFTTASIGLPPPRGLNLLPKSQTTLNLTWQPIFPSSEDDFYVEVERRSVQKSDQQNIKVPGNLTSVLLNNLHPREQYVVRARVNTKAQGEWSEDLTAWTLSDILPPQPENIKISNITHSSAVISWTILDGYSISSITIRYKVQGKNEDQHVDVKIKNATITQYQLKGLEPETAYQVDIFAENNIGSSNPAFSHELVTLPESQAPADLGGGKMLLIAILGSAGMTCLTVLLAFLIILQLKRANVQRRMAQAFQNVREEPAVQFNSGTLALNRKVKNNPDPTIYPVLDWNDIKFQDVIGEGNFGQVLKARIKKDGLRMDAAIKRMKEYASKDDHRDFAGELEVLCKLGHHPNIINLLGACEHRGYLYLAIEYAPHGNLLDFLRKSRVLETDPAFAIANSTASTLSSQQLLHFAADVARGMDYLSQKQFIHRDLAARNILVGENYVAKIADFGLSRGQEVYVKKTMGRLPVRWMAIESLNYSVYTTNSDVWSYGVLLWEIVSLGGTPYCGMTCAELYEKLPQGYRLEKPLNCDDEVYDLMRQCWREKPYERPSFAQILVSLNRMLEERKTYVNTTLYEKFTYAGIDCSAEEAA
T4 sequence (P35916 25-1363): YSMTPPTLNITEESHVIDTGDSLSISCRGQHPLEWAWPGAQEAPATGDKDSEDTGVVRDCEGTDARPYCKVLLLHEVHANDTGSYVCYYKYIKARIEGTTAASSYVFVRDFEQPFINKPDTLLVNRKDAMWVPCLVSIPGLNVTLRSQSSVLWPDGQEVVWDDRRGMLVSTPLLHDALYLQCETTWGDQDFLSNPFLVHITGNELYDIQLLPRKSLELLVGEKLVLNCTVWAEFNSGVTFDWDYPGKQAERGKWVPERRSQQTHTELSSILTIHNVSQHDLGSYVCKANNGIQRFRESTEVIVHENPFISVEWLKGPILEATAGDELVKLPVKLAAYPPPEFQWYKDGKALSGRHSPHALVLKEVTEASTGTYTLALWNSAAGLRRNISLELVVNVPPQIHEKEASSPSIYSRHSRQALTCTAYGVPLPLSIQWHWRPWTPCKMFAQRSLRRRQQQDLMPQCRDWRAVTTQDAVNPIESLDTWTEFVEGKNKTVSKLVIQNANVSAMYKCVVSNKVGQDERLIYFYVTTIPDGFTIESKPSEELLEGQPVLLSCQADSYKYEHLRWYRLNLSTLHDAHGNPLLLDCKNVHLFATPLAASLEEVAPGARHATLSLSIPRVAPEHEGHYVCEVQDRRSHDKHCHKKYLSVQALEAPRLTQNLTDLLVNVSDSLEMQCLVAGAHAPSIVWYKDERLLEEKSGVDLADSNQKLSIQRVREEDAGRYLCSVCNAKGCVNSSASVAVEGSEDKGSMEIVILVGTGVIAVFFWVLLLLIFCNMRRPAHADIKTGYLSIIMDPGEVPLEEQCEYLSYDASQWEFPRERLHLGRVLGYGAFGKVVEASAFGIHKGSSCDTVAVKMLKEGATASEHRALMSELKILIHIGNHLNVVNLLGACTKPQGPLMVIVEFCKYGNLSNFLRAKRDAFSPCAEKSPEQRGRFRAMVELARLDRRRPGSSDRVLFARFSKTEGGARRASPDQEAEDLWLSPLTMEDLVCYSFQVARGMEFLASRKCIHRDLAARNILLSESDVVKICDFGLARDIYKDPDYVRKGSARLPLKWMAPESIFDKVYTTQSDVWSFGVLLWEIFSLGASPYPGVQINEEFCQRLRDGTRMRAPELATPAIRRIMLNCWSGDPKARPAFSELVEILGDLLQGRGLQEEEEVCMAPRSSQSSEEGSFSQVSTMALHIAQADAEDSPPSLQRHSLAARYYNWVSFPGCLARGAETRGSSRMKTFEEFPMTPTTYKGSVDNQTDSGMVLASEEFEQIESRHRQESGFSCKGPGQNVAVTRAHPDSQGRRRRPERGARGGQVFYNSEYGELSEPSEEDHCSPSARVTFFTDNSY

In general, IC50 refers to the point on the concentration scale where inhibition reaches its midpoint. As to `COc1ccc(F)c(COc2nsc(NC(=O)NCCCCN3CCCC3)c2C(N)=O)c1F` [Compound T093, 3-((2,6-difluoro-3-methoxybenzyl)oxy)-5-(3-(4-(pyrrolidin-1-yl)butyl)ureido)isothiazole-4-carboxamide], the half-maximal inhibitory concentration (IC50) is 181 nM on TIE2, 14600 nM on EGFR, 55.8 nM with HUVEC cells and 12.4 nM on VEGFR2 [3]. Besides, the fraction unbound at 2 h, 2 μM in the data set on melanin amounted to 0.0531. Besides, in [1] (setting [7]), the “maximum tolerated dose (MTD)” value is on record as ≥ 250 μg/eye. Moreover, in data set [2], the “MTD on the third day of eye drop administration” value is ≥ 250 μg/eye. Besides, the “MTD on the eighth day of eye drop administration” value in data set [2] was ≥ 250 μg/eye.
Turning to `COc1ccc(F)c(COc2nsc(NC(=O)NCCCCN3CC[C@@H](O)C3)c2C(N)=O)c1F` [Compound T114, 3-[(2,6-difluoro-3-methoxy-phenyl)methoxy]-5-[4-[(3R)-3-hydroxypyrrolidin-1-yl]butylcarbamoylamino]isothiazole-4-carboxamide], the fraction unbound at 2 h, 2 μM in the data set on melanin worked out at 0.0333. For the same compound, the IC50 at EGFR was determined as 13400 nM; in the data set with HUVEC cells, 19 nM; against VEGFR2 [4], 32.5 nM; at VEGFR2 [3], 12.8 nM.
Take `COc1ccc(F)c(COc2nsc(NC(=O)NCCCCN3CC[C@H](O)C3)c2C(N)=O)c1F` [Compound T104, 3-[(2,6-difluoro-3-methoxy-phenyl)methoxy]-5-[4-[(3S)-3-hydroxypyrrolidin-1-yl]butylcarbamoylamino] isothiazole-4-carboxamide]: the fraction unbound at 2 h, 2 μM in the data set with melanin is 0.0322. Besides, the IC50 at EGFR amounted to 18900 nM; with HUVEC cells it was 35.5 nM; against VEGFR2 [4], 34.5 nM; on VEGFR2 [3], 16.4 nM.
As a reminder, the solubility is the concentration that dissolves in the medium under given conditions. Low readings indicate a poorly soluble substance, high ones a readily soluble substance. In the case of `NC(=O)c1c(OCc2ccc3c(c2)OCC3)nsc1NC(=O)NCCCCN1CCCC1` [Compound T042, 3-((2,3-dihydrobenzofuran-6-yl)methoxy)-5-(3-(4-(pyrrolidin-1-yl)butyl)ureido)isothiazole-4-carboxamide], the IC50 was determined as 448 nM at TIE2; 42 nM on VEGFR3; 33000 nM at EGFR; 79.9 nM in the data set with HUVEC cells; 22 nM against VEGFR2 [4]; 34.3 nM on VEGFR1. For the same compound, on VEGFR2 [3], the IC50 worked out at 14.2 nM. The amount in solution in data set [5] (solubility at 8 h) came to 820 µg/mL (≈ 1780 µM).
On to `NC(=O)c1c(OCc2c(F)cc(Br)cc2F)nsc1NC(=O)NCCCCN1CCCC1` [PAN90806], for which the fraction unbound at 2 h, 2 μM in the data set on melanin stood at 0.0129. Further, in [6], the “Percentage of free drug with respect to melanin, comparison in words” value is reported as “lower percentage of free drug”. In data set [1] (eye drops to rabbits for six consecutive days), the “maximum tolerated dose (MTD)” value came out at 50 μg/eye. Also, the “maximum tolerated dose (MTD)” value in [1] (setting [7]) is listed as 100 μg/eye. In addition, the IC50 in the data set on HUVEC cells is 76.8 nM. Moreover, in data set [2] (100 μg/eye, six consecutive days, seventh day), the Eye observations entry was “ocular toxicity (corneal opacity and conjunctival swelling, or corneal edema and conjunctival hyperemia, or ocular discharge) was observed in all the 4 rabbits”. In [2], the “MTD on the third day of eye drop administration” value was determined as 100 μg/eye and the “MTD on the eighth day of eye drop administration” value came out at 50 μg/eye. Further, the solubility at 8 h in data set [5] came out at 124 µg/mL (≈ 234 µM).
Take `CN1CC[C@H](CCNC(=O)Nc2snc(OCc3cc4c(cc3F)CCO4)c2C(N)=O)C1` [Compound T095, 3-[(5-fluoro-2,3-dihydrobenzofuran-6-yl)methoxy]-5-[2-[(3S)-1-methylpyrrolidin-3-yl]ethylcarbamoylamino] isothiazole-4-carboxamide]: in the data set with melanin, the fraction unbound at 2 h, 2 μM stood at 0.0469. Moreover, the IC50 on EGFR came to 11400 nM; in the data set on HUVEC cells it was 55.8 nM; against VEGFR2 [4], 93 nM; at VEGFR2 [3], 4.7 nM.
